Measurements as given in patent US10316017B2, “COT modulators and methods of use thereof” (Gilead Sciences, Inc., priority 2015, dated 2019).
Like-named read-outs stand apart in the source and are kept apart here.

Experiments:
[1] = tested on: TNFα production in LPS-stimulated human monocytes; test: Cot Monocyte TNFα Cell Based Assay; details: Homo sapiens, Monocyte, read-out: EC50 TNF
Outline: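 5,000 cells/well; cmpd 1 h, 37 °C, 0.5% DMSO final; LPS 50 pg/ml, 4 h, 37 °C; media TNFα by HTRF sandwich (cryptate/XL665), RT overnight; % control vs unstimulated/stimulated wells.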

[2] = molecular target: T1, human Cot catalytic domain (30-397 amino acids) (Homo sapiens, UniProt P41279); test: High Throughput Cot Biochemical Assay (KinEASE TR-FRET); details: Cot biochemical HTRF (KinEASE TR-FRET) assay; read-out: IC50 HTRF
T1 construct: Purified recombinant human Cot catalytic domain (30-397 amino acids) was purchased from Cama Biosciences; purchased Cama Biosciences (so in the source)
Outline: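 First, purified human Cot (aa 30-397) at 5 nM phosphorylates an XL665-labeled STK3 peptide (1 μM) at 400 μM ATP, pH 7.0, 0.1% DMSO. Then a europium-conjugated phospho-specific antibody binds the product, giving the TR-FRET signal.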

[3] = TNFα in LPS-stimulated human monocytes

T1 sequence (P41279 30-397): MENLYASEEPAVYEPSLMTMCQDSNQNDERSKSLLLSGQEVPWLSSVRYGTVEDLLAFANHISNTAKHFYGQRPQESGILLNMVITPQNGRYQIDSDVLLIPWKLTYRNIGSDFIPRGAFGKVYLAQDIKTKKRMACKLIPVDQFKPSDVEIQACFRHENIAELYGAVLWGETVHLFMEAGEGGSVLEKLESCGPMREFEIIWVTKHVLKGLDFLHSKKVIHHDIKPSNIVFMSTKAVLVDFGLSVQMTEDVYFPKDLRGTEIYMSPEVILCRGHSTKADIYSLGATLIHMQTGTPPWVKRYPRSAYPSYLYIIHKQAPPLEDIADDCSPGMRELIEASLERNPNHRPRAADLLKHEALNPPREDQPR

Row | Structure (SMILES) | EC50 [1, 3] [nM] | IC50 [2] [nM] | EC50 [1] [nM]
1 | [2H][C@](Nc1cc(Cl)c2ncc(C#N)c(N[C@H](CC)c3ccccc3)c2c1)(c1ccc(F)cc1)c1c[nH]nn1 [Example 415, 8-chloro-6-(((S)-(4-fluorophenyl)(1H-1,2,3-triazol-4-yl)methyl-d)amino)-4-(((R)-1-phenylpropyl)amino)quinoline-3-carbonitrile] | 409 | 9 | –
2 | CC[C@@H](Nc1c(C#N)cnc2c(Cl)cc(N[C@@H](c3ccc(F)cc3)c3cn(C)nn3)cc12)c1ccccc1 [Example 416, 8-chloro-6-(((S)-(4-fluorophenyl)(1-methyl-1H-1,2,3-triazol-4-yl)methyl)amino)-4-(((R)-1-phenylpropyl)amino) quinoline-3-carbonitrile] | 209 | 6 | –
3 | N#Cc1cnc2c(Cl)cc(N[C@@H](c3ccc(F)cc3)c3c[nH]nn3)cc2c1NCC1CCOC1 (stereo partly drawn) [Example 420, 8-chloro-6-(((S)-(4-fluorophenyl)(1H-1,2,3-triazol-4-yl)methyl)amino)-4-(((tetrahydrofuran-3-yl)methyl)amino)quinoline-3-carbonitrile] | 5160 | 191 | –
4 | CC[C@@H](Nc1c(C#N)cnc2c(Cl)cc(N[C@H](c3cnn(C(F)F)n3)c3cccc(F)c3F)cc12)c1ccccc1 [Example 426, 8-chloro-6-(((S)-(2-(difluoromethyl)-2H-1,2,3-triazol-4-yl)(2,3-difluorophenyl)methyl)amino)-4-(((R)-1-phenylpropyl)amino) quinoline-3-carbonitrile] | > 10000 | 3150 | –
5 | CC[C@@H](Nc1c(C#N)cnc2c(Cl)cc(N[C@@H](c3cccc(F)c3F)c3cnnn3C(F)F)cc12)c1ccccc1 [Example 427, 8-chloro-6-(((S)-(1-(difluoromethyl)-1H-1,2,3-triazol-5-yl)(2,3-difluorophenyl)methyl)amino)-4-(((R)-1-phenylpropyl)amino) quinoline-3-carbonitrile] | 8880 | 316 | –
6 | CC[C@@H](Nc1c(C#N)cnc2c(Cl)cc(N[C@H](c3cn(C(F)F)nn3)c3cccc(F)c3F)cc12)c1ccccc1 [Example 428, 8-chloro-6-(((S)-(1-(difluoromethyl)-1H-1,2,3-triazol-4-yl)(2,3-difluorophenyl)methyl)amino)-4-(((R)-1-phenylpropyl)amino) quinoline-3-carbonitrile] | 1830 | 87 | –
7 | CC[C@@H](Nc1c(C#N)cnc2c(Cl)cc(N[C@H](c3cn(C4CC4)nn3)c3ccccc3F)cc12)c1ccccc1 [Example 429, 8-chloro-6-(((S)-(1-cyclopropyl-1H-1,2,3-triazol-4-yl)(2-fluorophenyl)methyl)amino)-4-(((R)-1-phenylpropyl)amino)quinoline-3-carbonitrile] | 257 | 9 | –
8 | C[Si](C)(C)Cn1cc([C@@H](Nc2cc(Cl)c3ncc(C#N)c(Nc4cnc(F)c(F)c4)c3c2)c2ccccc2F)nn1 [Example 431, (S)-8-chloro-4-((5,6-difluoropyridin-3-yl)amino)-6-(((2-fluorophenyl)(1-((trimethylsilyl)methyl)-1H-1,2,3-triazol-4-yl)methyl)amino)quinoline-3-carbonitrile] | – | 96 | 3280
9 | CC[C@@H](Nc1c(C#N)cnc2c(Cl)cc(NC(c3ccc(F)cc3)c3nn[nH]c3OC)cc12)c1ccccc1 (stereo partly drawn) [Example 434, 8-chloro-6-(((4-fluorophenyl)(5-methoxy-1H-1,2,3-triazol-4-yl)methyl)amino)-4-(((R)-1-phenylpropyl)amino)quinoline-3-carbonitrile] | 2380 | 2760 | –
10 | N#Cc1cnc2c(Cl)cc(N[C@@H](c3ccc(F)cc3)c3c[nH]nn3)cc2c1NCC1CCCCO1 (stereo partly drawn) [Example 436, 8-chloro-6-(((S)-(4-fluorophenyl)(1H-1,2,3-triazol-4-yl)methyl)amino)-4-(((tetrahydro-2H-pyran-2-yl)methyl)amino)quinoline-3-carbonitrile] | 3030 | 1360 | –
11 | CC(C)(C)N1CCC(n2cc([C@@H](Nc3cc(Cl)c4ncc(C#N)c(NCC5CCCCO5)c4c3)c3ccc(F)cc3)nn2)CC1 (stereo partly drawn) [Example 437, 6-(((S)-(1-(1-(tert-butyl)piperidin-4-yl)-1H-1,2,3-triazol-4-yl)(4-fluorophenyl)methyl)amino)-8-chloro-4-(((tetrahydro-2H-pyran-2-yl)methyl)amino)quinoline-3-carbonitrile] | 3910 | 448 | –

Continued, in another order:

Row | EC50 [1, 3] [nM] | IC50 [2] [nM] | Structure (SMILES) | EC50 [1] [nM]
12 | 2750 | 93 | CC1(Cn2cc([C@@H](Nc3cc(Cl)c4ncc(C#N)c(Nc5cnc(F)c(F)c5)c4c3)c3ccc(F)cc3)nn2)CCC1 [Example 413] | –
13 | 140 | 4 | N#Cc1cnc2c(Cl)cc(N[C@@H](c3ccc(F)cc3)c3cn(C4CC4)nn3)cc2c1Nc1cnc(F)c(Cl)c1 [Example 414, (S)-8-chloro-4-((5-chloro-6-fluoropyridin-3-yl)amino)-6-(((1-cyclopropyl-1H-1,2,3-triazol-4-yl)(4-fluorophenyl)methyl)amino) quinoline-3-carbonitrile] | –
14 | 1930 | 74 | N#Cc1cnc2c(Cl)cc(N[C@@H](c3ccc(F)cc3)c3cn(C4(C(F)(F)F)CC4)nn3)cc2c1Nc1cnc(F)c(F)c1 [Example 417, (S)-8-chloro-4-((5,6-difluoropyridin-3-yl)amino)-6-(((4-fluorophenyl)(1-(1-(trifluoromethyl)cyclopropyl)-1H-1,2,3-triazol-4-yl)methyl)amino)quinoline-3-carbonitrile] | –
15 | 4170 | 361 | N#Cc1cnc2c(Cl)cc(N[C@@H](c3ccc(F)cc3)c3c[nH]nn3)cc2c1NCc1cccs1 [Example 418, (S)-8-chloro-6-(((4-fluorophenyl)(1H-1,2,3-triazol-4-yl)methyl)amino)-4-((thiophen-2-ylmethyl)amino)quinoline-3-carbonitrile] | –
16 | 4300 | 392 | N#Cc1cnc2c(Cl)cc(N[C@@H](c3ccc(F)cc3)c3c[nH]nn3)cc2c1NCc1ccsc1 [Example 419, (S)-8-chloro-6-(((4-fluorophenyl)(1H-1,2,3-triazol-4-yl)methyl)amino)-4-((thiophen-3-ylmethyl)amino)quinoline-3-carbonitrile] | –
17 | > 10000 | 1490 | N#Cc1cnc2c(Cl)cc(N[C@@H](c3ccc(F)cc3)c3c[nH]nn3)cc2c1NCC1COC1 [Example 421, (S)-8-chloro-6-(((4-fluorophenyl)(1H-1,2,3-triazol-4-yl)methyl)amino)-4-((oxetan-3-ylmethyl)amino)quinoline-3-carbonitrile] | –
18 | 1350 | 48 | N#Cc1cnc2c(Cl)cc(N[C@H](c3c[nH]nn3)c3ccc(F)cc3Cl)cc2c1Nc1cnc(F)c(F)c1 [Example 422, (S)-8-chloro-6-(((2-chloro-4-fluorophenyl)(1H-1,2,3-triazol-4-yl)methyl)amino)-4-((5,6-difluoropyridin-3-yl)amino)quinoline-3-carbonitrile] | –
19 | 1260 | 17 | N#Cc1ccc([C@H](Nc2cc(Cl)c3ncc(C#N)c(Nc4cnc(F)c(F)c4)c3c2)c2c[nH]nn2)cc1 [Example 423, (S)-8-chloro-6-(((4-cyanophenyl)(1H-1,2,3-triazol-4-yl)methyl)amino)-4-((5,6-difluoropyridin-3-yl)amino)quinoline-3-carbonitrile] | –
20 | 415 | 6 | N#Cc1cccc([C@H](Nc2cc(Cl)c3ncc(C#N)c(Nc4cnc(F)c(F)c4)c3c2)c2c[nH]nn2)c1 [Example 424, (S)-8-chloro-6-(((3-cyanophenyl)(1H-1,2,3-triazol-4-yl)methyl)amino)-4-((5,6-difluoropyridin-3-yl)amino)quinoline-3-carbonitrile] | –
21 | 438 | 10 | N#Cc1cnc2c(Cl)cc(N[C@@H](c3ccc(F)cc3)c3c[nH]nn3)cc2c1Nc1cnc(F)c(Cl)c1 [Example 425, (S)-8-chloro-4-((5-chloro-6-fluoropyridin-3-yl)amino)-6-(((4-fluorophenyl)(1H-1,2,3-triazol-4-yl)methyl)amino)quinoline-3-carbonitrile] | –
22 | 679 | 7 | N#Cc1cnc2c(Cl)cc(N[C@H](c3cn(C4CC4)nn3)c3ccccc3F)cc2c1Nc1cnc(F)c(F)c1 [Example 430, (S)-8-chloro-6-(((1-cyclopropyl-1H-1,2,3-triazol-4-yl)(2-fluorophenyl)methyl)amino)-4-((5,6-difluoropyridin-3-yl)amino)quinoline-3-carbonitrile] | –
23 | 3930 | 624 | N#Cc1cnc2c(Cl)cc(N[C@@H](c3ccc(F)cc3)c3c[nH]nn3)cc2c1N[C@@H](CCO)c1ccccc1 [Example 432, 8-chloro-6-(((S)-(4-fluorophenyl)(1H-1,2,3-triazol-4-yl)methyl)amino)-4-(((S)-3-hydroxy-1-phenylpropyl)amino)quinoline-3-carbonitrile] | –
24 | 1380 | 31 | N#Cc1cnc2c(Cl)cc(N[C@@H](c3ccc(F)cc3)c3c[nH]nn3)cc2c1N[C@H](CO)c1ccccc1 [Example 433, 8-chloro-6-(((S)-(4-fluorophenyl)(1H-1,2,3-triazol-4-yl)methyl)amino)-4-(((S)-2-hydroxy-1-phenylethyl)amino)quinoline-3-carbonitrile] | –
25 | > 10000 | 7930 | COc1[nH]nnc1C(Nc1cc(Cl)c2ncc(C#N)c(Nc3cnc(F)c(F)c3)c2c1)c1ccc(F)cc1 (centres unmarked) [Example 435, 8-chloro-4-((5,6-difluoropyridin-3-yl)amino)-6-(((4-fluorophenyl)(5-methoxy-1H-1,2,3-triazol-4-yl)methyl)amino)quinoline-3-carbonitrile] | –
